Tests used:
hemoglobin = test: Phase 3 trial (Example 1): hemoglobin; assay type: in vivo, human; set-up: Hemoglobin, Mean / Hemoglobin, Median / Hemoglobin, Change from Baseline, Mean / Hemoglobin, Change from Baseline, Median / Hemoglobin, LS Mean: unit not given here; settings: for Hemoglobin, Mean / Hemoglobin, Median / Hemoglobin, LS Mean / Hemoglobin, Change from Baseline, Mean / Hemoglobin, Change from Baseline, Median / Hemoglobin, Treatment Differences, LS Mean (KRX-0502) − LS Mean (control), (SE): Table 17
Description: Complete Blood Count (CBC) (white blood cell [WBC] count, white blood cell types [WBC differential], red blood cell [RBC] count, hematocrit [HCT], hemoglobin [Hgb], red blood cell indices, platelet [thrombocyte] count) was done at the Randomization Visit (Visit 4); at Visits 11 (Week 12), 14 (Week 24), 17 (Week 36), 20 (Week 48), and 21 (Week 52) of the 52-week Safety Assessment Period; and at Visit 25 (Week 56) of the Efficacy Assessment Period.

[1] = Phase 3 trial (Example 1): cumulative IV iron intake to Week 52; assay type: in vivo, human
Procedure: Laboratory measurements were conducted throughout the study to assess safety and efficacy. The dose and specific IV iron preparation administered (if necessary) were at the discretion of the PI. Oral iron therapy was not permitted. Calcium-containing drugs were not permitted if given within two hours of food ingestion (calcium-containing drugs were permitted two hours or more prior to or following food ingestion or at bedtime for the purpose of raising the serum calcium). No Vitamin C supplements were permitted. Patients were allowed to take daily water soluble vitamins that include a small amount of Vitamin C (e.g., Centrum, Nephrocaps, Renaphro), but those patients were instructed to take them two hours or more prior to or following food ingestion or at bedtime. IV iron therapy was not permitted if the ferritin level is >1000 micrograms/L or the TSAT is >30%. If it was deemed in the patient's best interest to receive IV iron outside these parameters, the Clinical Coordinating Center (CCC) was consulted, and when approved and documented, was not considered a protocol exception.
The cumulative IV iron intake from randomization to Week 52 will be compared between treatment groups. This variable will be similarly analyzed as the primary efficacy variable using ANCOVA method. The two-sided 95% confidence intervals of treatment differences for all above comparisons will be presented.

[2] = Phase 2 trial (Example 2): treatment failures; assay type: in vivo, human; settings: two consecutive visits; 12-week treatment period
Procedure: If a subject has a serum phosphorus ≥6.0 mg/dL for at least two visits in a row during the 12-week treatment period, the subject is considered a treatment failure, stops study drug and exits the study.
The use of IV iron and erythropoietin stimulating agents (ESAs) is not permitted during the two-week washout and 12-week treatment periods. If a subject's hemoglobin level (Hgb) is <9.0 g/dL during the two-week washout, the subject is a screen failure. If a subject's Hgb is <9.0 g/dL for at least two visits in a row during the 12-week treatment period, the subject is considered a treatment failure, stops study drug and exits the study.
Patients were discontinued from the study if they had hemoglobin measurements <9.0 g/dL on two consecutive visits or serum phosphorus measurements ≥6.0 mg/dL on two consecutive visits following randomization.

[3] = Dissolution testing, USP <711> vessels, Apparatus II; assay type: physicochemical; settings: relative to standard = 100
[4] = Day 0 Baseline, Safety Assessment Period
[5] = Method 1 to Handle Overlapping Doses, Table 19

iron (+3), x (1, 2, 3-propanetricarboxylic acid, 2-hydroxy-), y (H2O) [KRX-0502]
Mean Hemoglobin, LS Mean Difference from Active Control Group at Week 52 (hemoglobin; ANCOVA, Table E): 0.4 g/dL
Mean Hemoglobin (hemoglobin; Baseline (Day 0), Table E): 11.6 g/dL
Hemoglobin, Mean (hemoglobin; [4]): 11.61
Hemoglobin, Median (hemoglobin; [4]): 11.45
Mean Hemoglobin, Change from Baseline at Week 52 (hemoglobin; Table E): -0.2 g/dL
Hemoglobin, LS Mean (hemoglobin; Week 12, ANCOVA): 11.83
Hemoglobin, Change from Baseline, Mean (hemoglobin; Week 12): 0.19
Hemoglobin, Change from Baseline, Median (hemoglobin; Week 12): 0.10
Hemoglobin, Mean (hemoglobin; Week 12): 11.82
Hemoglobin, Median (hemoglobin; Week 12): 11.70
Hemoglobin, Treatment Differences, LS Mean (KRX-0502) − LS Mean (control), (SE) (hemoglobin; Week 12): 0.30 (0.14)
Hemoglobin, LS Mean (hemoglobin; Week 24, ANCOVA): 11.56
Hemoglobin, Change from Baseline, Mean (hemoglobin; Week 24): −0.08
Hemoglobin, Change from Baseline, Median (hemoglobin; Week 24): −0.10
Hemoglobin, Mean (hemoglobin; Week 24): 11.55
Hemoglobin, Median (hemoglobin; Week 24): 11.30
Hemoglobin, Treatment Differences, LS Mean (KRX-0502) − LS Mean (control), (SE) (hemoglobin; Week 24): 0.12 (0.13)
Hemoglobin, LS Mean (hemoglobin; Week 36, ANCOVA): 11.55
Hemoglobin, Change from Baseline, Mean (hemoglobin; Week 36): −0.08
Hemoglobin, Change from Baseline, Median (hemoglobin; Week 36): −0.10
Hemoglobin, Mean (hemoglobin; Week 36): 11.54
Hemoglobin, Median (hemoglobin; Week 36): 11.20
Hemoglobin, Treatment Differences, LS Mean (KRX-0502) − LS Mean (control), (SE) (hemoglobin; Week 36): 0.27 (0.14)
Hemoglobin, LS Mean (hemoglobin; Week 48, ANCOVA): 11.52
Hemoglobin, Change from Baseline, Mean (hemoglobin; Week 48): −0.12
Hemoglobin, Change from Baseline, Median (hemoglobin; Week 48): −0.20
Hemoglobin, Mean (hemoglobin; Week 48): 11.50
Hemoglobin, Median (hemoglobin; Week 48): 11.20
Hemoglobin, Treatment Differences, LS Mean (KRX-0502) − LS Mean (control), (SE) (hemoglobin; Week 48): 0.30 (0.14)
Hemoglobin, LS Mean (hemoglobin; Week 52, ANCOVA): 11.44
Mean Hemoglobin (hemoglobin; Week 52, LOCF, Table E): 11.4 g/dL
Hemoglobin, Change from Baseline, Mean (hemoglobin; Week 52): −0.20
Hemoglobin, Change from Baseline, Median (hemoglobin; Week 52): −0.20
Hemoglobin, Mean (hemoglobin; Week 52): 11.42
Hemoglobin, Median (hemoglobin; Week 52): 11.20
Hemoglobin, Treatment Differences, LS Mean (KRX-0502) − LS Mean (control), (SE) (hemoglobin; Week 52): 0.36 (0.14)
Average Daily IV iron intake based on the Cumulative IV iron intake to week 52 (Visit 4-21), Mean [1, 5]: 2.96
Average Daily IV iron intake based on the Cumulative IV iron intake to week 52 (Visit 4-21), Median [1, 5]: 1.86
mean reduction in average cumulative IV iron intake ([1]; administered over a period of 52 weeks, stated as embodiment): 51.6%
Treatment Failures (n), Hemoglobin <9.0 g/dL [2]: 1
Treatment Failures (n), Serum Phosphorus ≥6.0 mg/dL [2]: 0
Dissolution testing, percentage dissolved ([3]; 5 minutes): ≥ 91%
Dissolution testing, percentage dissolved ([3]; 15 minutes): ≥ 96%
Dissolution testing, percentage dissolved ([3]; 30 minutes): ≥ 96%
Dissolution testing, percentage dissolved ([3]; 60 minutes): ≥ 95%
